± gives the expanded uncertainty stated by the source.
Test: xn = mol fraction of the nth substance listed
Settings: 298.15 K, 101.3 kPa, Liquid; for viscosity: Capillary tube (Ostwald / Ubbelohde) method

Cc1ccccc1 [toluene] + ClC=C(Cl)Cl
x2 = 0
Settings	mass density [kg/m3]	viscosity [mPa·s]
–	860.5 ± 0.6	0.5641 ± 0.0076

CCC(C)=O [butanone] + ClC(Cl)=C(Cl)Cl
x2 = 0
Settings	mass density [kg/m3]	viscosity [mPa·s]
–	797.4 ± 0.7	0.4011 ± 0.0069

ClC(Cl)=C(Cl)Cl [tetrachloroethene] + CCOC(C)=O
Settings	mass density [kg/m3]	viscosity [mPa·s]
x1 = 0.0962	961.2 ± 0.6	0.4946 ± 0.0073
x1 = 0.1932	1030.8 ± 0.6	0.5525 ± 0.0075
x1 = 0.291	1100.6 ± 0.7	0.6095 ± 0.0078
x1 = 0.3899	1171 ± 0.8	0.6633 ± 0.0081
x1 = 0.4894	1241.8 ± 1	0.711 ± 0.0083
x1 = 0.5901	1313.6 ± 1.1	0.7481 ± 0.0085
x1 = 0.6911	1385.7 ± 1.2	0.7788 ± 0.0087
x1 = 0.7937	1460 ± 1.3	0.8078 ± 0.0089
x1 = 0.8964	1534.5 ± 1.5	0.8295 ± 0.009
x1 = 1	1610.2 ± 1.6	0.8474 ± 0.0091

ClC(Cl)=C(Cl)Cl [tetrachloroethene] + CCCO
Settings	mass density [kg/m3]	viscosity [mPa·s]
x1 = 0.0749	879 ± 0.6	1.79 ± 0.016
x1 = 0.1541	958.4 ± 0.6	1.632 ± 0.015
x1 = 0.2379	1038.5 ± 0.6	1.488 ± 0.014
x1 = 0.3269	1117.4 ± 0.8	1.35 ± 0.013
x1 = 0.4214	1197.5 ± 0.9	1.218 ± 0.012
x1 = 0.5229	1278.9 ± 1	1.11 ± 0.011
x1 = 0.6302	1360.9 ± 1.2	1.011 ± 0.01
x1 = 0.745	1442.8 ± 1.3	0.9253 ± 0.0096
x1 = 0.8679	1525.7 ± 1.5	0.8657 ± 0.0092
x1 = 1	1610.2 ± 1.6	0.8474 ± 0.0091

c1ccccc1 [benzene] + ClC(Cl)=C(Cl)Cl
x2 = 0
Settings	mass density [kg/m3]	viscosity [mPa·s]
–	869.7 ± 0.6	0.608 ± 0.0078

ClC(Cl)=C(Cl)Cl [tetrachloroethene] + COC(C)=O
Settings	mass density [kg/m3]	viscosity [mPa·s]
x1 = 0.0796	989.2 ± 0.5	0.4237 ± 0.007
x1 = 0.1628	1054.7 ± 0.6	0.4749 ± 0.0072
x1 = 0.25	1120.7 ± 0.7	0.5226 ± 0.0074
x1 = 0.3415	1188.6 ± 0.8	0.5729 ± 0.0076
x1 = 0.4373	1255.3 ± 1	0.6243 ± 0.0079
x1 = 0.5388	1322.7 ± 1.1	0.6708 ± 0.0081
x1 = 0.6452	1393.1 ± 1.2	0.7166 ± 0.0084
x1 = 0.7573	1464.2 ± 1.3	0.7614 ± 0.0086
x1 = 0.8749	1535.4 ± 1.5	0.8038 ± 0.0089
x1 = 1	1610.2 ± 1.6	0.8474 ± 0.0091

ClC(Cl)=C(Cl)Cl [tetrachloroethene] + ClC(Cl)(Cl)Cl
Settings	mass density [kg/m3]	viscosity [mPa·s]
x1 = 0.0946	1583.5 ± 1.6	0.8943 ± 0.0094
x1 = 0.1904	1582.4 ± 1.6	0.8803 ± 0.0093
x1 = 0.2873	1582 ± 1.6	0.8675 ± 0.0092
x1 = 0.3853	1582.5 ± 1.6	0.8569 ± 0.0092
x1 = 0.4845	1583.8 ± 1.6	0.8504 ± 0.0091
x1 = 0.5859	1587.2 ± 1.6	0.8452 ± 0.0091
x1 = 0.6876	1590.1 ± 1.6	0.8407 ± 0.0091
x1 = 0.7904	1596.8 ± 1.6	0.8422 ± 0.0091
x1 = 0.8946	1603.2 ± 1.6	0.8445 ± 0.0091
x1 = 1	1610.2 ± 1.6	0.8474 ± 0.0091

ClC=C(Cl)Cl [trichloroethene] + CCCCO
Settings	mass density [kg/m3]	viscosity [mPa·s]
x1 = 0.1018	870 ± 0.6	2.098 ± 0.019
x1 = 0.2033	934.3 ± 0.6	1.734 ± 0.015
x1 = 0.3038	997.5 ± 0.6	1.429 ± 0.013
x1 = 0.4042	1061.9 ± 0.7	1.19 ± 0.011
x1 = 0.5046	1126.5 ± 0.8	1.008 ± 0.01
x1 = 0.6045	1191.4 ± 0.9	0.8696 ± 0.0093
x1 = 0.7042	1257 ± 1	0.7737 ± 0.0087
x1 = 0.8025	1321.9 ± 1.1	0.6878 ± 0.0082
x1 = 0.9014	1388.3 ± 1.2	0.6227 ± 0.0079
x1 = 1	1455.7 ± 1.3	0.551 ± 0.0075

ClC=C(Cl)Cl [trichloroethene] + ClC(Cl)(Cl)Cl
Settings	mass density [kg/m3]	viscosity [mPa·s]
x1 = 0.1068	1568.1 ± 1.5	0.8568 ± 0.0092
x1 = 0.212	1552.3 ± 1.5	0.8098 ± 0.0089
x1 = 0.315	1536.3 ± 1.5	0.7632 ± 0.0086
x1 = 0.4171	1520.8 ± 1.4	0.7186 ± 0.0084
x1 = 0.5178	1506.7 ± 1.4	0.6826 ± 0.0082
x1 = 0.6175	1495.3 ± 1.4	0.6511 ± 0.008
x1 = 0.7152	1484.6 ± 1.4	0.6226 ± 0.0079
x1 = 0.8114	1475 ± 1.3	0.5965 ± 0.0077
x1 = 0.9064	1464.6 ± 1.3	0.5727 ± 0.0076
x1 = 1	1455.7 ± 1.3	0.551 ± 0.0075

ClC=C(Cl)Cl [trichloroethene] + CCC(C)=O
Settings	mass density [kg/m3]	viscosity [mPa·s]
x1 = 0.1004	861.2 ± 0.6	0.4307 ± 0.007
x1 = 0.2005	924.2 ± 0.6	0.4566 ± 0.0071
x1 = 0.3002	987.2 ± 0.6	0.4835 ± 0.0072
x1 = 0.4005	1052.5 ± 0.7	0.5088 ± 0.0073
x1 = 0.5005	1117.6 ± 0.8	0.5281 ± 0.0074
x1 = 0.6007	1183.7 ± 0.8	0.5391 ± 0.0075
x1 = 0.7004	1249.6 ± 0.9	0.5455 ± 0.0075
x1 = 0.8004	1315.5 ± 1.1	0.5499 ± 0.0075
x1 = 0.8998	1385.4 ± 1.2	0.5495 ± 0.0075
x1 = 1	1455.7 ± 1.3	0.551 ± 0.0075

CC(C)=O [acetone] + ClC(Cl)=C(Cl)Cl
x2 = 0
Settings	mass density [kg/m3]	viscosity [mPa·s]
–	780.8 ± 0.7	0.3121 ± 0.0066

ClC=C(Cl)Cl [trichloroethene] + CCCO
Settings	mass density [kg/m3]	viscosity [mPa·s]
x1 = 0.0848	864.2 ± 0.6	1.705 ± 0.015
x1 = 0.1725	928.6 ± 0.6	1.486 ± 0.013
x1 = 0.2627	992.9 ± 0.6	1.281 ± 0.012
x1 = 0.3567	1058.3 ± 0.7	1.099 ± 0.011
x1 = 0.4541	1122.4 ± 0.8	0.9476 ± 0.0097
x1 = 0.5556	1188.3 ± 0.9	0.8226 ± 0.009
x1 = 0.6604	1254.3 ± 1	0.7262 ± 0.0084
x1 = 0.7691	1320.6 ± 1.1	0.6463 ± 0.008
x1 = 0.8823	1387.5 ± 1.2	0.5848 ± 0.0077
x1 = 1	1455.7 ± 1.3	0.551 ± 0.0075

ClC=C(Cl)Cl [trichloroethene] + CCOC(C)=O
Settings	mass density [kg/m3]	viscosity [mPa·s]
x1 = 0.1086	944.2 ± 0.6	0.4658 ± 0.0072
x1 = 0.2151	998.6 ± 0.5	0.5023 ± 0.0073
x1 = 0.3189	1052.8 ± 0.6	0.5302 ± 0.0074
x1 = 0.4219	1108.6 ± 0.7	0.5564 ± 0.0076
x1 = 0.5226	1163.7 ± 0.8	0.5685 ± 0.0076
x1 = 0.6215	1220.2 ± 0.9	0.5705 ± 0.0076
x1 = 0.7185	1277.3 ± 1	0.5681 ± 0.0076
x1 = 0.8143	1335.6 ± 1.1	0.563 ± 0.0076
x1 = 0.908	1393.5 ± 1.2	0.5589 ± 0.0076
x1 = 1	1455.7 ± 1.3	0.551 ± 0.0075

CCO [ethanol] + ClC(Cl)=C(Cl)Cl
x2 = 0
Settings	mass density [kg/m3]	viscosity [mPa·s]
–	787.4 ± 0.7	1.112 ± 0.011
